Data on 30 compounds can be found in ChEMBL document CHEMBL4411297, “Discovery, synthesis and anti-atherosclerotic activities of a novel selective sphingomyelin synthase 2 inhibitor” (Eur J Med Chem, 2019).

The structures appear in SMILES notation. Calls of active or inactive are those of the source. No cut-off for these calls is given here. Where only a bound is given, the exact number is not on record here.

In the first experiment the target is T1, Phosphatidylcholine:ceramide cholinephosphotransferase 2 (Homo sapiens, UniProt Q8NHU3).
T1 sequence (Q8NHU3 whole entry): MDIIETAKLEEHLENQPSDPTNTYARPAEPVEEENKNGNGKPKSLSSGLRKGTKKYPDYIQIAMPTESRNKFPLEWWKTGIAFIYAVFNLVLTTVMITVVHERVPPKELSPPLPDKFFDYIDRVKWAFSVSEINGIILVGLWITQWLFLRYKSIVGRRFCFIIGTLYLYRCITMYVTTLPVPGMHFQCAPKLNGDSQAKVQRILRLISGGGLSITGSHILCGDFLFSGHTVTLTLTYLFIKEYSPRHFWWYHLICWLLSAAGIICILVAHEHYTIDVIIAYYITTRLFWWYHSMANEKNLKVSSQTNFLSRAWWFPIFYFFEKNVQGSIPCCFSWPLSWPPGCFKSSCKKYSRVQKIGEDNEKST
Kind of experiment: Inhibition of SMS2 (unknown origin) over-expressed in H5 insect cell lysate using C6-NBD-Ceramide and DMPC as substrates preincubated for 30 mins followed by substrate addition and measured after 2 hrs by TLC or HPLC method. The class given is subcellular.
For `O=C(NCc1ccccc1)c1ccccc1OCc1ccccc1`, the IC50 – broadly, the midpoint of a concentration-inhibition curve – came out at 34200 nM.
Turning to `O=C(Nc1cccnc1)c1ccccc1OCc1cc(F)ccc1Cl`, half-maximal inhibition (IC50) required 740 nM.
`O=C(NC1CCCCC1)c1ccccc1OCc1ccccc1` came in with a concentration for half-maximal inhibition (IC50) of 43400 nM.
As to `O=C(Nc1cccnc1)c1ccccc1OCc1ccccc1C(F)(F)F`, inhibition was half-maximal at 2100 nM (IC50).
`CC(C#N)(Nc1ccccc1)c1ccccc1OCc1ccccc1` (configuration not stated): the IC50 came out at 34000 nM.
The same measure, in the same setting: as for `O=C(Nc1cccnc1)c1ccccc1OCc1c(Cl)cccc1Cl`, the figure is 690 nM; as for `O=C(Nc1cccnc1)c1ccccc1OCc1cc(Cl)ccc1Cl`, 990 nM.
For `O=C(Nc1cccnc1)c1ccccc1OCc1ccccc1OCCCCCl`, the IC50 was determined as 1300 nM.
The compound `O=C(NC1CCCNC1)c1ccccc1OCc1ccccc1Cl` (configuration not stated) had an IC50 of more than 100000 nM.
On the same count and under the same terms, as for `O=C(Nc1ccccc1)c1ccccc1OCc1ccccc1`, the figure is 13400 nM.
`CCCCCCOc1ccc(Cl)cc1COc1ccccc1C(=O)Nc1cccnc1` had an IC50 of 520 nM.
`COc1ccc(OC)c(COc2ccccc2C(=O)Nc2cccnc2)c1` showed an IC50 of 2800 nM. This IC50 lies about 5.4-fold higher than the previous one.
In turn, `O=C(Nc1cccnc1)c1ccccc1OCc1ccccc1OCCCCCCl` showed an IC50 of 670 nM. This IC50 lies about 4.2-fold lower than the previous one.
With `O=C(Nc1cccnc1)c1ccccc1OCc1ccccc1`, the midpoint of inhibition, the IC50, lay at 3200 nM. This IC50 is about 4.8-fold higher than that of the compound before.
The same measure, in the same setting: with `O=C(NCc1ccco1)c1ccccc1OCc1ccccc1` the figure was 49000 nM.
In turn, `Cc1ccc(Cl)cc1COc1ccccc1C(=O)Nc1cccnc1` gave an IC50 of 1100 nM.
As for `CCCCCCCOc1ccc(Cl)cc1COc1ccccc1C(=O)Nc1cccnc1`, the midpoint of inhibition, the IC50, lay at 430 nM. This IC50 lies about 2.6-fold lower than the previous one.
`COc1ccc(Cl)cc1COc1ccccc1C(=O)Nc1cccnc1`: the IC50 was 670 nM.
`N#Cc1cccc(COc2ccccc2C(=O)Nc2cccnc2)c1`: half-maximal inhibition (IC50) was put at 60700 nM.
For the compound `O=C(Nc1cccnc1)c1ccccc1OCc1ccccc1Cl`, half-maximal inhibition (IC50) was put at 1100 nM.
In the case of `N#Cc1ccccc1COc1ccccc1C(=O)Nc1cccnc1`, the IC50 turned out to be 31800 nM.
`Cc1c(Cl)cccc1COc1ccccc1C(=O)Nc1cccnc1`: the IC50 was found to be 3800 nM.
On to `Cc1cccc(C)c1COc1ccccc1C(=O)Nc1cccnc1`, for which inhibition was half-maximal at 890 nM (IC50).
With `Cc1ccc(F)cc1COc1ccccc1C(=O)Nc1cccnc1`, the IC50 turned out to be 740 nM.
Compound `O=C(Nc1cccnc1)c1ccccc1OCc1ccccc1OCCCCCCCl` came in with an IC50 of 470 nM.

Tested on in the next experiment: not listed separately
Put plainly: Inhibition of SMS (unknown origin). Details: species or system Homo sapiens.
`S=C(S)O[C@@H]1C[C@H]2C[C@@H]1[C@H]1CCC[C@@H]21` showed an IC50 of 177000 to 600000 nM.

The target of another experiment is T2, Phosphatidylcholine:ceramide cholinephosphotransferase 2 (Homo sapiens) (UniProt Q8NHU3).
T2 sequence (whole entry): T1 sequence (Q8NHU3 whole entry)
Kind of experiment: Inhibition of SMS2 (unknown origin) over-expressed in H5 insect cell lysate at 100 uM using C6-NBD-Ceramide and DMPC as substrates preincubated for 30 mins followed by substrate addition and measured after 2 hrs by TLC or HPLC method relative to control. The class given is subcellular.
With `NC(=O)C(Nc1ccccc1)c1ccccc1OCc1ccccc1` (configuration not stated), the inhibition (in general, how much of the control response was suppressed) was 39%.
In the case of `CC(C#N)(Nc1ccccc1)c1ccccc1OCc1ccccc1` (configuration not stated), the inhibition amounted to 58%.
With `c1ccc(COc2ccccc2CNc2ccccc2)cc1`, the inhibition entry is “inactive”.
`N#CC(Nc1ccccc1)c1ccccc1OCc1ccccc1` (configuration not stated) yielded an inhibition of 75%.
Take `O=C(Nc1ccccc1)c1ccccc1OCc1ccccc1`: the inhibition stood at 69%.
Turning to `c1ccc(COc2ccccc2C(Nc2ccccc2)c2nnn[nH]2)cc1` (configuration not stated), the inhibition entry was “inactive”.
